Tested on: primary rat cerebellar granule neurons (CGNs)
Experiment: Neuroprotection assay: glutamate/glycine excitotoxicity in differentiated CGNs (MTT)
Type: cell-based
Conditions: CGNs 8 DIV
Procedure: Several lines of evidence point to MS as not only an inflammatory but also a neurodegenerative disease. Thus, neuroprotective agents may hold promise for MS therapy.[32] […] Thus, to test the neuroprotective capability of 1 and 2, we used a glutamate excitotoxicity model of primary cultural neurons. At day 8 in vitro (8 DIV), CGNs were pretreated with the compounds for 6 h, before adding 100 μM glutamate/10 μM glycine insult for further 24 h. […] Furthermore, while reference compounds (alone and in combination) increase glutamate/glycine excitotoxicity at higher doses, 1 was not toxic even at the highest concentration tested (25 μM). […]
committee (Protocol n° 17-72-1212) and performed according to Italian and European Community laws on the use of animals for experimental purposes. […]
heat-inactivated FBS (Aurogene), 2 mM glutamine, 100 μM gentamicin sulphate and 25 mM KCl (all from Sigma-Aldrich). […] The viability of CGNs exposed to increasing concentrations of the studied compounds (0, 5, 10 and 25 μM) for 24 h was evaluated through the MTT assay. […] Following a 20 min incubation at 37 °C in the dark, the MTT precipitate was dissolved in 0.1 M Tris-HCl pH 7.5 buffer containing 5% Triton X-100 (all from Sigma-Aldrich) and absorbance was read at 570 nm in a multiplate spectophotometric reader (Bio-Rad). […] After 24 hours, neuronal survival has been evaluated through MTT assay. […]

CC/C=C\C/C=C\C/C=C\CCCCCCCC(=O)NCCNC(=O)C(CCC)CCC [compound 1]
toxicity under glutamate/glycine excitotoxicity at higher doses (100 μM glutamate/10 μM glycine, highest concentration tested 25 μM): not toxic
neuroprotection against glutamatergic excitotoxicity (MTT) (6 h pretreatment + 24 h with 100 μM glutamate/10 μM glycine, especially at 5 and 10 μM): more neuroprotective
